Starred links: 1 amine or outer side, 2 acyl side, 3 side chain; linkers in the order of their positions; H or OH if unused. Positions of bridges follow the written chain, without caps; N, C: chain ends. Non-standard residues stand in square brackets, D forms with d. Residues, ends and D or L forms follow the SMILES beside them. Chains are numbered I, II in the order given. *: point of attachment. isoGln = NC(=O)[C@H](CCC(=O)[*:2])N[*:1]; εLys = N[C@@H](CCCCN[*:1])C(=O)[*:2]; Dab = NCC[C@H](N)C(=O)O; PhAc = O=C(Cc1ccccc1)*
How the values were obtained:
[1] = Preceding clinical study, Cmax; format: in vivo, human; details: 0.3 mg
Method: The originally planned escalating doses were 0.1, 0.3, 1, 3, 6, and 10 mg, respectively. […] The doses and/or infusion rates could be adjusted based on recommendations from the SRC.

[2] = test system: CCl4-induced rat model of cirrhosis and ascites; experiment: CCl4-induced cirrhosis and ascites rats, cohort 1 (SC bolus b.i.d. 3 days), renal excretory function; format: in vivo
Method: (§1) Animals: 90 male Wistar rats (Charles River Laboratories, Espana S.A) weighing 200-220 grams at the time of receipt were subjected to a cirrhosis induction program; high dose CCl4 was administered by inhalation twice weekly (Monday and Friday) and phenobarbital (0.3 g/L) was added to drinking water. In some instances, liver damage in this model is caused by hepatotoxic CCl4 metabolites produced in the liver. In some instances, phenobarbital induction of the microsomal enzyme oxidizing system exaggerates the intensity of the hepatic necrosis. The data was collected from the treatment of 44 cirrhotic rats with ascites. Animals were allowed free access to food and water throughout the study.
(§2) The study consisted of 3 treatment cohorts, as detailed in Table 10. Animals developing and maintaining ascites for 2 weeks were randomly assigned to treatment groups. Ringer Braun saline solution was used as vehicle. IV bolus were administered via femoral veins.
This study was performed at the Hospital Clinic (Barcelona, Spain). Measurements and/or samples were collected for additional experimental parameters (e.g., water intake, urine osmolality, serum samples, tissue samples, etc.) but data are not reported.
Cohort 1: Animals were placed into metabolic cages for continuous urine collection and administered 100 μg/kg FE 204205 or vehicle by SC bolus for 3 days (see Table 3 for details). Measurements of body weight, urine volume, and urine sodium content were taken prior to treatment (Day 0) and daily over the course of treatment administration. After 3 days of treatment, the volume of ascites was measured by aspiration and the animals were sacrificed by isofluorane overdose.

[3] = M1 formation, single dose subcutaneous infusion in rats; format: in vivo, rat; details: s.c. infusion
Source text: The incision for the mini-pump was on the cranial right side of the spine, a trocar or hemostats may be inserted to create a subcutaneous pocket, and the pump inserted into the subcutaneous pocket with the delivery port of the mini-pump pointing cranially. The doses were given into mid-dorsal area via surgical implantation of the pump filled with test article. Following insertion of the implant, a 4 cm×4 cm area surrounding the pump will be delineated and designated as the test site. The test site will be delineated and remarked as necessary thereafter.
Blood samples were collected from each rat at various timepoints, including 0.25 hour (hr), 1 hr, 3 hr, 7 hr, 24 hr, 25 hr, 27 hr, and 29 hr.

[4] = test system: CCl4-induced rat model of cirrhosis and ascites; experiment: CCl4-induced cirrhosis and ascites rats, cohort 2 (single IV bolus), renal excretory function; format: in vivo; details: 100 μg/kg IV
Method: as §1, §2
Cohort 2: Animals were anesthetized and the left femoral artery and vein catheterized. Bladders were exposed by suprapubic incision and catheterized for urine collection. A priming dose of PAH (4 mg/animal) was administered via the jugular vein followed by a constant infusion (2 mL/hr) of Ringer solution containing 4 mg/mL PAH. After 30 minutes of infusion, a baseline 30 minute urine collection was obtained for urine volume, urine sodium content, urine creatinine content, and PAH measurements. In the middle of the 30 minute urine collection, a blood sample (0.8 mL) was obtained via the femoral artery catheter for PAH and creatinine measurements. […] Five 30 minute urine collections were performed over 150 minutes, with blood samples collected in the middle of each 30 minute urine collection. Following blood sampling, packed cells were reconstituted with Ringer solution and reinjected over a period of 3 minutes.

[5] = Tolerability in healthy monkeys; format: in vivo, cynomolgus monkey; details: non-human primates
Method: Clinical observations were made before and after dosing. IV administration
The data reported herein were collected over 19 dosing sessions of four animals each, using a total of six monkeys. Animals were repeat dosed in a crossover design with at least one animal receiving vehicle for each round; the animal receiving vehicle was varied between rounds. A 48- to 72-h washout period was used between dosing sessions. Animals were observed by camera for ~1 h before dosing (covering the baseline period) and up to 3 h after dosing.

CC[C@H](C)[C@@H]1NC(=O)[C@H](Cc2ccccc2)NC(=O)[C@@H](N)CSSC[C@@H](C(=O)N2CCC[C@H]2C(=O)N[C@@H](CCNC(=O)[C@@H](N)CCCCNC(=O)[C@H](CCCCNC(C)=O)NC(=O)CC[C@H](NC(=O)[C@H](CCCNC(=N)N)NC(=O)[C@@H]2CCCN2C(=O)[C@H](C)NC(=O)[C@H](CC(N)=O)NC(=O)[C@H](CCC(N)=O)NC(=O)[C@H](Cc2ccccc2)NC(=O)[C@@H](Cc2ccc(OC)cc2)NC(=O)Cc2ccccc2)C(N)=O)C(=O)NCC(N)=O)NC(=O)[C@H](CC(N)=O)NC(=O)[C@H](CCC(N)=O)NC1=O [Compound 1, Glycinamide, L-cysteinyl-L-phenylalanyl-L-isoleucyl-L-glutaminyl-L-asparaginyl-L-cysteinyl-L-prolyl-N4-(phenylacetyl-O-methyl-D-tyrosyl-L-phenylalanyl-L-glutaminyl-L-asparaginyl-L-alanyl-L-prolyl-L-arginyl-L-isoglutamyl-N5-acetyl-L-lysyl-L-ε-lysyl)-L-2,4-diaminobutyryl-, cyclic (1→6)-disulfide] (I: H-CFIQNCP[Dab]G-NH2 / II: PhAc-[dY](Me)FQNAPR[isoGln]K(Ac)[εLys]; disulfide I:1-I:6; amide I:8-II:C)
Cmax ([1]; 6 hour i.v. infusion): up to 6 ng/mL | Cmax ([1]; s.c. injection): up to 2.5 ng/mL | Ascites Volume ([2]; 100 μg/kg SC b.i.d., after 3 days (vehicle 18.6)): 6.0 mL | Body Weight ([2]; 100 μg/kg SC b.i.d., basal): 461 grs | Sodium Excretion ([2]; 100 μg/kg SC b.i.d., basal): 0.6 mEq/day | Urine Volume ([2]; 100 μg/kg SC b.i.d., basal): 9.7 mL/day | Body Weight ([2]; 100 μg/kg SC b.i.d., day 1): 402 grs | Sodium Excretion ([2]; 100 μg/kg SC b.i.d., day 1): 8.2 mEq/day | Urine Volume ([2]; 100 μg/kg SC b.i.d., day 1): 51.6 mL/day | Body Weight ([2]; 100 μg/kg SC b.i.d., day 2): 397 grs | Sodium Excretion ([2]; 100 μg/kg SC b.i.d., day 2): 1.1 mEq/day | Urine Volume ([2]; 100 μg/kg SC b.i.d., day 2): 21.8 mL/day | Body Weight ([2]; 100 μg/kg SC b.i.d., day 3): 396 grs | Sodium Excretion ([2]; 100 μg/kg SC b.i.d., day 3): 0.3 mEq/day | Urine Volume ([2]; 100 μg/kg SC b.i.d., day 3): 16.6 mL/day | effect on ascites ([2]; SC, three days): fully evacuated the ascites accumulated in the peritoneal cavity or markedly diminished ascites volume | metabolised ([3]; rat, plasma, sc, 4.8 mg/kg, rats): < 20% | adverse events ([3]; rats and mini-pigs): No relevant adverse events were reported | Sodium Excretion ([4]; 0 min): 0.4 μEq/min | Urine Volume ([4]; 0 min): 8.4 µL/min | Sodium Excretion ([4]; 30 min): 1.1 μEq/min | Urine Volume ([4]; 30 min): 16.4 µL/min | Sodium Excretion ([4]; 60 min): 4.1 μEq/min | Urine Volume ([4]; 60 min): 26.5 µL/min | Sodium Excretion ([4]; 90 min): 5.3 μEq/min | Urine Volume ([4]; 90 min): 26.2 µL/min | Sodium Excretion ([4]; 120 min): 7.0 μEq/min | Urine Volume ([4]; 120 min): 32.3 µL/min | Sodium Excretion ([4]; 150 min): 7.2 μEq/min | Urine Volume ([4]; 150 min): 32.7 µL/min | effect on body temperature [5]: no apparent Compound 1-related effect on body temperature | tolerability ([5]; single-dose SC and IV bolus): well tolerated
